Experimental data taken from ChEMBL document CHEMBL4052712, “Design and optimization of highly-selective, broad spectrum fungal CYP51 inhibitors” (Bioorg Med Chem Lett, 2017).
Activity calls are given as the source filed them. The rule behind the calls is not given here.

What was measured:
[1] = molecular target: Cytochrome P450 3A4 (Homo sapiens, UniProt P08684); assay: Inhibition of CYP3A4 in human hepatocyte microsomes using testosterone substrate by HPLC/MS/MS method; format: ADME
[2] = molecular target: Lanosterol 14-alpha demethylase (Candida albicans (strain SC5314 / ATCC MYA-2876) (Yeast), UniProt P10613); assay: Inhibition of CYP51 in Candida albicans assessed as inhibition of microbe growth incubated for 48 hrs by CLSI M27-A3 guideline based method
[3] = molecular target: T1, Lanosterol 14-alpha demethylase (Aspergillus) (UniProt B8NUK6+Q9P8R0+G4WW85); assay: Inhibition of CYP51 in Aspergillus fumigatus assessed as inhibition of microbe growth incubated for 48 to 168 hrs by CLSI M27-A3 guideline based method
[4] = molecular target: T1, Lanosterol 14-alpha demethylase (Aspergillus); assay: Inhibition of CYP51 in Aspergillus flavus assessed as inhibition of microbe growth incubated for 48 to 168 hrs by CLSI M27-A3 guideline based method
[5] = molecular target: T2, Lanosterol 14-alpha demethylase (Trichophyton rubrum (strain ATCC MYA-4607 / CBS 118892) (Athlete'sfoot fungus)) (UniProt F2SHH3); assay: Inhibition of CYP51 in Trichophyton rubrum assessed as inhibition of microbe growth incubated for 48 hrs by CLSI M27-A3 guideline based method
T2 sequence (whole entry): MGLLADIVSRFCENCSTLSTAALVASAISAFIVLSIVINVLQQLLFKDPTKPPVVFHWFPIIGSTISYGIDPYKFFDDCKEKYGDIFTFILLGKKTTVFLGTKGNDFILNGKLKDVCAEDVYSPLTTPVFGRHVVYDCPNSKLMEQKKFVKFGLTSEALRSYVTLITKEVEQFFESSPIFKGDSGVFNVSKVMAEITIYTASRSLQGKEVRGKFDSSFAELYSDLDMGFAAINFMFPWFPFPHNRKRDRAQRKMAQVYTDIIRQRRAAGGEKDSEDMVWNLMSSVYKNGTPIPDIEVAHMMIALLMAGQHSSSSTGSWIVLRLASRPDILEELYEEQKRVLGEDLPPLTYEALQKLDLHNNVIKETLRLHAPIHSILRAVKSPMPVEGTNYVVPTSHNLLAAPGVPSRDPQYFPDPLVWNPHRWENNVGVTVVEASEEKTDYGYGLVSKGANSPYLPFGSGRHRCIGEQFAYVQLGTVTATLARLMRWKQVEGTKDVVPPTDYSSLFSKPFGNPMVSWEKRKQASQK

[6] = molecular target: Lanosterol 14-alpha demethylase (Candida glabrata (strain ATCC 2001 / BCRC 20586 / JCM 3761 / NBRC 0622 /NRRL Y-65 / CBS 138) (Yeast) (Nakaseomyces glabratus)) (UniProt P50859); assay: Inhibition of CYP51 in Candida glabrata assessed as inhibition of microbe growth incubated for 48 hrs by CLSI M27-A3 guideline based method
[7] = test system: Cryptococcus neoformans; assay: Inhibition of CYP51 in Cryptococcus neoformans assessed as inhibition of microbe growth incubated for 48 hrs by CLSI M27-A3 guideline based method

Lanosterol 14-alpha demethylase, sequence (P10613 whole entry): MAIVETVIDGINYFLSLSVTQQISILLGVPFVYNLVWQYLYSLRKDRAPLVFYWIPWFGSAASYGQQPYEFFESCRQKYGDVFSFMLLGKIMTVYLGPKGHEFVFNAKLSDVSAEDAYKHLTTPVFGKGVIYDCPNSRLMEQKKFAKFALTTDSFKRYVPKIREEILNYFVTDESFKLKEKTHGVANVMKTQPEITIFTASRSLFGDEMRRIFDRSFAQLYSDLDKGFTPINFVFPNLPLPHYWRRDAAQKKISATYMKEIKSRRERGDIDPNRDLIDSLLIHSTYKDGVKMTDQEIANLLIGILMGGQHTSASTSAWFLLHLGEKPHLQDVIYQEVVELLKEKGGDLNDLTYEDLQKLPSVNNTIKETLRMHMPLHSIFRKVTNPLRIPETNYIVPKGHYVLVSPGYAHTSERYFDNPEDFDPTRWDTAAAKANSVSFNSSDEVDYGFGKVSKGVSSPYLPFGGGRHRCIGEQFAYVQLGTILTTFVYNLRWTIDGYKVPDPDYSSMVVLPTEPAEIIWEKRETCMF
Cytochrome P450 3A4, sequence (P08684 whole entry): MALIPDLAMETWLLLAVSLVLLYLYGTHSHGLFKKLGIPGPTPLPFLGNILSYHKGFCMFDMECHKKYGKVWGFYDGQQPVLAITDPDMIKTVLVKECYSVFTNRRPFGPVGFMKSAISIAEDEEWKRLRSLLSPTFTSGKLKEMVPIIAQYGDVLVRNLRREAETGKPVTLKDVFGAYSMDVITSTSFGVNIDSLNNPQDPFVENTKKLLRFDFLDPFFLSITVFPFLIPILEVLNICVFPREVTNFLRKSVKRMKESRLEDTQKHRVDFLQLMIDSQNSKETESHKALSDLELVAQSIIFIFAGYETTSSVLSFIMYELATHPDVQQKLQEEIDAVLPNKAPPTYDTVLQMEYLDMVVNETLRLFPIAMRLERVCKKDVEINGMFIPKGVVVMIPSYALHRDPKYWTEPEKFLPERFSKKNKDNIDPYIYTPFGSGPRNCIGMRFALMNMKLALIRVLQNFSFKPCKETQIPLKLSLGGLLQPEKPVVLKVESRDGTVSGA
Lanosterol 14-alpha demethylase (Candida glabrata (strain ATCC 2001 / BCRC 20586 / JCM 3761 / NBRC 0622 /NRRL Y-65 / CBS 138) (Yeast) (Nakaseomyces glabratus)), sequence (P50859 whole entry): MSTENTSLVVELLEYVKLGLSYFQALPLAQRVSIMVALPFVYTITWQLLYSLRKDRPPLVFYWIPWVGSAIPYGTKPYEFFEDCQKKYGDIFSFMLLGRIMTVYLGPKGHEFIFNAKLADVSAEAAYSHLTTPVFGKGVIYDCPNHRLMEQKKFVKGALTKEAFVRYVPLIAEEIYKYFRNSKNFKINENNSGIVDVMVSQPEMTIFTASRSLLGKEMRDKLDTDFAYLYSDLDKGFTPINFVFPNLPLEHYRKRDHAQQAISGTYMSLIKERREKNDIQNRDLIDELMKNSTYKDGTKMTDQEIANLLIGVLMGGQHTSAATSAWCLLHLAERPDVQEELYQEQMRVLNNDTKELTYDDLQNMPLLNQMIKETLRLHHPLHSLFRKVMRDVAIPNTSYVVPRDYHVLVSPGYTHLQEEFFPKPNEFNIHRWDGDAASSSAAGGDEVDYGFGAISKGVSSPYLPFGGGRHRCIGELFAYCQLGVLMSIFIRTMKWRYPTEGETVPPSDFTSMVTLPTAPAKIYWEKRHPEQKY

IC50 [1] | MIC50 [2] | MIC100 [3] | SMILES | further results
100 µM | – | – | OC(Cn1cnnn1)(c1ccc(F)cc1F)C(F)(F)c1ccc(C#Cc2ccc(F)cc2)cn1 (stereo in doubt; 6a) [listing 1 of 2 here] | –
> 200 µM | 0.0625 µg/mL | 32 µg/mL | OC(Cn1cnnn1)(c1ccc(F)cc1F)C(F)(F)c1ccc(C#Cc2ccc(OCc3ccc(F)cc3)cc2)cn1 (centres undefined) | –
> 200 µM | 0.031 µg/mL | > 64 µg/mL | N#Cc1ccc(OCc2ccc(C#Cc3ccc(C(F)(F)C(O)(Cn4cnnn4)c4ccc(F)cc4F)nc3)cc2)cc1 (centres undefined) | –
122 µM | 0.031 µg/mL | > 64 µg/mL | CNC(=O)c1ccc(COc2ccc(C#Cc3ccc(C(F)(F)C(O)(Cn4cnnn4)c4ccc(F)cc4F)nc3)cc2)cc1 (centres undefined) | –
> 200 µM | 0.16 µg/mL | > 64 µg/mL | N#Cc1ccc(COc2ccc(C#Cc3ccc(C(F)(F)C(O)(Cn4cnnn4)c4ccc(F)cc4F)nc3)cc2)c(F)c1 (centres undefined) | –
> 200 µM | 0.25 µg/mL | > 64 µg/mL | OC(Cn1cnnn1)(c1ccc(F)cc1F)C(F)(F)c1ccc(C#Cc2ccc(OCc3ccc(OC(F)(F)F)cc3)cc2)cn1 (centres undefined) | –
> 200 µM | 0.031 µg/mL | – | OC(Cn1cnnn1)(c1ccc(F)cc1F)C(F)(F)c1ccc(C#Cc2ccc(OCc3ccc(CC(F)F)cc3)cc2)cn1 (single isomer, unassigned; (+)) [listing 1 of 2 here] | –
> 200 µM | 0.031 µg/mL | – | N#Cc1ccc(COc2ccc(C#Cc3ccc(C(F)(F)C(O)(Cn4cnnn4)c4ccc(F)cc4F)nc3)cc2)cc1 (stereo in doubt; 7f) [listing 1 of 2 here] | –
10 µM | < 0.001 µg/mL | 4 µg/mL | OC(Cn1cnnn1)(c1ccc(F)cc1F)C(F)(F)c1ccc(C#Cc2ccc(NCC(F)(F)F)cc2)cn1 (centres undefined) | –
> 200 µM | 0.125 µg/mL | > 64 µg/mL | OC(Cn1cnnn1)(c1ccc(F)cc1F)C(F)(F)c1ccc(C#Cc2ccc(OCc3ccc(C(F)(F)F)cc3)cc2)cn1 (centres undefined) | –
60 µM | < 0.001 µg/mL | 64 µg/mL | OC(Cn1cnnn1)(c1ccc(F)cc1F)C(F)(F)c1ccc(C#Cc2ccc(OCC(F)F)cc2)cn1 (centres undefined) | –
– | – | 0.5 µg/mL | N#Cc1ccc(COc2ccc(C#Cc3ccc(C(F)(F)C(O)(Cn4cnnn4)c4ccc(F)cc4F)nc3)cc2)cc1F (single isomer, unassigned; (+)) [listing 1 of 2 here] | –
> 200 µM | 0.031 µg/mL | > 64 µg/mL | OC(Cn1cnnn1)(c1ccc(F)cc1F)C(F)(F)c1ccc(C#Cc2cccc(Cl)c2)cn1 (centres undefined) | –
– | – | 4 µg/mL | OC(Cn1cnnn1)(c1ccc(F)cc1F)C(F)(F)c1ccc(C#Cc2ccc(OCc3ccc(CC(F)F)cc3)cc2)cn1 (stereo in doubt; 7e) [listing 1 of 2 here] | –
> 200 µM | 0.031 µg/mL | > 64 µg/mL | N#Cc1ccc(COc2ccc(C#Cc3ccc(C(F)(F)C(O)(Cn4cnnn4)c4ccc(Cl)cc4F)nc3)cc2)cc1 (centres undefined) | –
– | – | 2 µg/mL | OC(Cn1cnnn1)(c1ccc(F)cc1F)C(F)(F)c1ccc(C#Cc2ccc(OCc3ccc(CC(F)F)cc3)cc2)cn1 (single isomer, unassigned; (+)) [listing 2 of 2 here] | –

IC50 [1] | MIC50 [2] | MIC100 [3] | SMILES | further results
> 200 µM | 0.016 µg/mL | > 64 µg/mL | N#Cc1cccc(COc2ccc(C#Cc3ccc(C(F)(F)C(O)(Cn4cnnn4)c4ccc(F)cc4F)nc3)cc2)c1 (centres undefined) | –
> 200 µM | 0.016 µg/mL | > 64 µg/mL | N#Cc1ccc(COc2ccc(C#Cc3ccc(C(F)(F)C(O)(Cn4cnnn4)c4cc(F)ccc4F)nc3)cc2)cc1 (centres undefined) | –
> 200 µM | 0.004 µg/mL | – | N#Cc1ccc(COc2ccc(C#Cc3ccc(C(F)(F)C(O)(Cn4cnnn4)c4ccc(F)cc4F)nc3)cc2)cc1F (single isomer, unassigned; (+)) [listing 2 of 2 here] | –
– | – | inactive | OC(Cn1cnnn1)(c1ccc(F)cc1F)C(F)(F)c1ccc(C#Cc2ccc(F)cc2)cn1 (single isomer, unassigned; (-)) | –
> 200 µM | 0.004 µg/mL | > 64 µg/mL | OC(Cn1cnnn1)(c1ccc(F)cc1F)C(F)(F)c1ccc(C#Cc2cccc(F)c2)cn1 (centres undefined) | –
198 µM | < 0.001 µg/mL | – | OC(Cn1cnnn1)(c1ccc(F)cc1F)C(F)(F)c1ccc(C#Cc2ccc(F)cc2)cn1 (single isomer, unassigned; (+)) [listing 1 of 2 here] | –
> 200 µM | 0.0625 µg/mL | – | OC(Cn1cnnn1)(c1ccc(F)cc1F)C(F)(F)c1ccc(C#Cc2ccc(OCc3ccc(CC(F)F)cc3)cc2)cn1 (stereo in doubt; 7e) [listing 2 of 2 here] | –
– | – | 1 µg/mL | N#Cc1ccc(COc2ccc(C#Cc3ccc(C(F)(F)C(O)(Cn4cnnn4)c4ccc(F)cc4F)nc3)cc2)cc1F (stereo in doubt; 8a) [listing 1 of 2 here] | –
65 µM | < 0.001 µg/mL | > 64 µg/mL | O[C@@](Cn1cnnn1)(c1ccc(F)cc1F)C(F)(F)c1ccc(-c2ccc(OCC(F)(F)F)cc2)cn1 [OTESECONAZOLE] | –
– | – | 16 µg/mL | OC(Cn1cnnn1)(c1ccc(F)cc1F)C(F)(F)c1ccc(C#Cc2ccc(F)cc2)cn1 (single isomer, unassigned; (+)) [listing 2 of 2 here] | –
> 200 µM | 0.031 µg/mL | – | N#Cc1ccc(COc2ccc(C#Cc3ccc(C(F)(F)C(O)(Cn4cnnn4)c4ccc(F)cc4F)nc3)cc2)cc1F (stereo in doubt; 8a) [listing 2 of 2 here] | –
> 200 µM | 0.004 µg/mL | > 64 µg/mL | OC(Cn1cnnn1)(c1ccc(F)cc1F)C(F)(F)c1ccc(C#Cc2ccc(Cl)cc2)cn1 (centres undefined) | –
> 200 µM | 0.016 µg/mL | > 64 µg/mL | OC(Cn1cnnn1)(c1ccc(F)cc1F)C(F)(F)c1ccc(C#Cc2ccc(C(F)(F)F)cc2)cn1 (centres undefined) | –
– | – | > 64 µg/mL | OC(Cn1cnnn1)(c1ccc(F)cc1F)C(F)(F)c1ccc(C#Cc2ccc(F)cc2)cn1 (stereo in doubt; 6a) [listing 2 of 2 here] | –
– | – | 8 µg/mL | N#Cc1ccc(COc2ccc(C#Cc3ccc(C(F)(F)C(O)(Cn4cnnn4)c4ccc(F)cc4F)nc3)cc2)cc1 (stereo in doubt; 7f) [listing 2 of 2 here] | –
– | – | 0.25 µg/mL | N#Cc1ccc(COc2ccc(C#Cc3ccc(C(F)(F)C(O)(Cn4cnnn4)c4ccc(F)cc4F)nc3)cc2)cc1 (single isomer, unassigned; (+)) | MIC100 [4]: 0.5 µg/mL; MIC50 [5]: 0.25 µg/mL; MIC50 [6]: 0.12 µg/mL; MIC50 [7]: 0.0019 µg/mL
